As a reminder, the IC50 is the midpoint of a concentration-inhibition curve. In general, EC50 refers to the concentration at which the effect is half-maximal.

Data set [1] deals with BCL-XL (Homo sapiens (Human), UniProt Q07817). The experiment in a line: Protein-protein interaction assay BCL-XL/Bad BH3 peptide (BCL-XL assay, TR-FRET). In kind it is binding. To be noted: read-out: BCL-XL Assay IC50 (median). Here is the method: Assay 2 Protein-Protein Interaction Assay: BCL-XL/Bad BH3 Peptide (BCL-XL Assay)
Chain of BCL-XL (Q07817 1-212): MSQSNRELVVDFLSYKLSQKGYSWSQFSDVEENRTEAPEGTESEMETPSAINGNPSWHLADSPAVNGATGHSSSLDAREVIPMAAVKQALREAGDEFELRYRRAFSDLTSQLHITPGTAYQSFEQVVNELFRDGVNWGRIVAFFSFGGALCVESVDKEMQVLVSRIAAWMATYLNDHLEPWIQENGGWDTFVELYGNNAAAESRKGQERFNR
The dose-dependent inhibition by the compounds described in this invention of the interaction between BCL-XL and the BH3 domain of Bad (both human) was determined using a steady state binding competition assay with time-resolved fluorescence energy transfer (TR-FRET) readout. For that purpose BCL-XL (amino acids 1-212, C-terminal fused to a hexahistidine (6×His) tag (SEQ ID 3) and a synthetic Bad BH3-derived peptide of sequence Biotin-PEG2-PEG2-[…]-Nle-[…]-amide (SEQ ID 4) served as protein receptor and tracer ligand respectively. The recombinant BCL-XL protein (expressed in E. coli) was purchased from BPS Bioscience (San Diego, Calif., USA). The Bad BH3-derived peptide can be obtained from e.g. Biosyntan (Berlin, Germany).
In the assay 11 different concentrations of each compound (0.1 nM, 0.33 nM, 1.1 nM, 3.8 nM, 13 nM, 44 nM, 0.15 μM, 0.51 μM, 1.7 μM, 5.9 μM and 20 μM) were typically measured as duplicates in the same microtiter plate. For that, 100-fold concentrated DMSO solutions were prepared by serial dilutions (1:3.4) of a 2 mM stock solution in a clear, 384-well microtiter plate (Greiner Bio-One, Frickenhausen, Germany). From there, 50 nl were transferred in a dark test plate (Greiner Bio-One, Frickenhausen, Germany). The assay was initiated by addition of 2 μL of a 2,5-fold concentrated His-BCL-XL solution (usually for a 1 nM end concentration in 5 μL reaction volume) in aqueous assay buffer [50 mM Tris/HCl pH 7, 100 mM sodium chloride (NaCl), 50 mM potassium fluoride (KF), 0.005% Tween-20, 2 mM DTT, 0.1% bovine gamma globulin (BGG)] to the compounds in the assay plate. This was followed by a 10-minute incubation step at 22° C. for pre-equilibration of the putative complex between His-BCL-XL and the compounds. After that, 3 μL of a 1.67-fold concentrated solution (in assay buffer) consisting of Bad BH3-derived peptide (1 nM end concentration) and TR-FRET detection reagents [1.67 nM anti-His-Eu cryptate and 1.67 nM streptavidin-XL665 (both from Cisbio Bioassays, Codolet, France)], were added.
The mixture was incubated in the dark for one hour at 22° C. and then overnight at 4° C. The formation of BCL-XL/Bad complexes was determined by measuring the resonance energy transfer of the anti-His- Eu-cryptate antibody to the streptavidin-XL665 present in the reaction. For that purpose, the fluorescence emission at 620 nm and 665 nm after excitation at 330-350 nm was measured in a TR-FRET measuring instrument, for instance a Rubystar or a Pherastar (both from BMG Lab Technologies, Offenburg, Germany) or a Viewlux (Perkin-Elmer). The ratio of the emission at 665 nm and at 622 nm was used as indicator of the amount of BCL-XL/Bad complexes present.
The resulting data (ratio) were normalized, taking 0% inhibition as the mean value of control measurements (usually 32 data points) where all reagents were included. In this case 50 nl DMSO were used instead of compounds. […] IC50 values were determined by regression analysis based on a 4 parameter equation (minimum, maximum, IC50, Hill; Y=Max+(Min−Max)/(1+(X/IC50)^Hill) using the Screener Software (Genedata).
A general note: TR-FRET usually uses a lanthanide donor and a delayed reading to cut background.

Data set [2] relates to HMC-1-8 cells. The experiment in a line: Antiproliferation assay HMC-1-8 (Assay 7). The class given is cell-based. The gist of the method: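 Cells are plated alongside a time-zero reference plate and held overnight at 37 °C. Treated plates are incubated 72 h, then ATP-based luminescence (CellTiter-Glo) is read. IC50 uses day 0 as baseline and DMSO as untreated control.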
Data set [3] relates to SUDHL5 cells. The experiment in a line: Induction of caspase-3/7 activity in SUDHL5 cells (Assay 4). In kind it is cell-based. The gist of the method: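 Caspase-3/7 activity measured in DLBCL lines after 3 h compound exposure at 37 °C, following overnight plating; Caspase-Glo 3/7 luminescence read after 1 h at 37 °C. Medium-only background subtracted, values normalized to mean of DMSO-treated cells.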

The test system of data set [4] is SUDHL5 cells. The experiment in a line: Induction of cytotoxicity in SUDHL5 cells (Assay 6). The class given is cell-based. In short, it runs like this: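 Cells plated overnight at 37 °C, then exposed to compound for 5 h in a humidified incubator at 37 °C. Viability read by CellTiter-Glo luminescence after 15 min shaking at room temperature; cell-free medium served as control.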

The mark [5] stands for this setting: read-out: Antiproli HMC-1-8 IC50 median; 72 h, CellTiter-Glo.
Where [6] appears, read: read-out: Caspase SUDHL5 EC50 (median); caspase-3/7 induction, 3 h.
[7] abbreviates: 5 h, CellTiter-Glo; read-out: Cytotox SUDHL5 IC50 (median).
Where [8] appears, read: caspase-3/7 induction, 3 h; read-out: Caspase SUDHL5 EC50 (median).
[9] abbreviates: read-out: Cytotox SUDHL5 IC50 (median); 5 h, CellTiter-Glo.

Structures can show the parent of a compound that is named as a salt. Where two headings read alike, the source gives them in different places.

As to `CCc1c2c(nn1C)C(CCN1CCOCC1)OCCCCn1c(C(=O)O)c(CCCOc3cccc4ccccc34)c3ccc(F)c-2c31` (racemic) [Example 10, (rac)-3-ethyl-4-fluoro-2-methyl-15-[2-(morpholin-4-yl)ethyl]-7-[3-(naphthalen-1-yloxy)propyl]-2,10,11,12,13,15-hexahydropyrazolo[4′,3′:9,10][1,6]oxazacycloundecino[8,7,6-hi]indole-8-carboxylic Acid], the IC50 in data set [1] was > 20000 nM; in data set [2] (72 h, CellTiter-Glo, read-out: Antiproli HMC-1-8 IC50 median), 1490 nM; in data set [4] (Homo sapiens, SU-DHL-5, 5 h, 5 h, CellTiter-Glo; read-out: Cytotox SUDHL5 IC50 (median)) it was 140 nM. The concentration for a half-maximal effect (EC50) in data set [3] (Homo sapiens, SU-DHL-5, 3 h, caspase-3/7 induction, 3 h; read-out: Caspase SUDHL5 EC50 (median)) amounted to 110 nM.
Consider `CCc1c2c(nn1C)C(CCN1CCN(C)CC1)OCCCCn1c(C(=O)O)c(CCCOc3cccc4cc(F)ccc34)c3ccc(Cl)c-2c31` (racemic) [Example 68, 4-chloro-3-ethyl-7-{3-[(6-fluoronaphthalen-1-yl)oxy]propyl}-2-methyl-(15-rac)-[2-(4-methylpiperazin-1-yl)ethyl]-2,10,11,12,13,15-hexahydropyrazolo[4′,3′:9,10][1,6]oxazacycloundecino[8,7,6-hi]indole-8-carboxylic Acid—N-ethylethanamine Salt (Mixture 1 of Stereoisomers)], for which the IC50 in data set [1] is > 20000 nM; in data set [2] (setting [5]), 2620 nM.
On to `CCc1c2c(nn1C)C(CCN1CCN(C)CC1)OCCCCn1c(C(=O)O)c(CCCOc3cccc4cc(F)ccc34)c3ccc(Cl)c-2c31` (racemic) [Example 71, (rac)-4-chloro-3-ethyl-7-{3-[(6-fluoronaphthalen-1-yl)oxy]propyl}-2-methyl-(15-rac)-[2-(4-methylpiperazin-1-yl)ethyl]-2,10,11,12,13,15-hexahydropyrazolo[4′,3′:9,10][1,6]oxazacycloundecino[8,7,6-hi]indole-8-carboxylic Acid—N-ethylethanamine Salt (Mixture 2 Od Stereoisomers)], for which the IC50 in data set [1] is > 20000 nM; in data set [2] (setting [5]) it was 1370 nM.
As for `CCc1c2c(nn1C)C(CCN1CCC(F)(F)C1)OCCCCn1c(C(=O)O)c(CCCOc3cccc4cc(F)ccc34)c3ccc(Cl)c-2c31` (single isomer, unassigned; enantiomer 1) [Example 56, 4-chloro-15-[2-(3,3-difluoropyrrolidin-1-yl)ethyl]-3-ethyl-7-{3-[(6-fluoronaphthalen-1-yl)oxy]propyl}-2-methyl-2,10,11,12,13,15-hexahydropyrazolo[4′,3′:9,10][1,6]oxazacycloundecino[8,7,6-hi]indole-8-carboxylic Acid—N-ethylethanamine Salt (Enantiomer 1)], the IC50 in data set [1] was > 20000 nM; in data set [4] (setting [7]), 21 nM. In addition, in data set [3] (setting [6]), the concentration for a half-maximal effect (EC50) was found to be 18 nM.
The like results for `Cc1c2c(nn1C)C(CCN1CCOCC1)OCCCCn1c(C(=O)O)c(CCCOc3cccc4ccccc34)c3ccc(F)c-2c31` (single isomer, unassigned; enantiomer 2) [Example 9, 4-fluoro-2,3-dimethyl-15-[2-(morpholin-4-yl)ethyl]-7-{3-[(naphthalen-1-yl)oxy]propyl}-2,10,11,12,13,15-hexahydropyrazolo[4′,3′:9,10][1,6]oxazacycloundecino[8,7,6-hi]indole-8-carboxylic Acid—N-ethylethanamine Salt (Enantiomer 2)] were, in that order, > 20000 nM, 5400 nM and 6400 nM.
The like results for `CCc1c2c(nn1C)C(CCN1CCOCC1)OCCCCn1c(C(=O)O)c(CCCOc3cccc4ccccc34)c3ccc(F)c-2c31` (single isomer, unassigned; enantiomer 2) [Example 12, 3-ethyl-4-fluoro-2-methyl-15-[2-(morpholin-4-yl)ethyl]-7-{3-[(naphthalen-1-yl)oxy]propyl}-2,10,11,12,13,15-hexahydropyrazolo[4′,3′:9,10][1,6]oxazacycloundecino[8,7,6-hi]indole-8-carboxylic Acid—N-ethylethanamine Salt (Enantiomer 2)] were, in that order, > 20000 nM, 3300 nM and 2700 nM.
As to `Cc1c2c(nn1C)C(CCN1CCOCC1)OCCCCn1c(C(=O)O)c(CCCOc3cccc4ccccc34)c3ccc(Cl)c-2c31` (single isomer, unassigned; enantiomer 2) [Example 15, 4-chloro-2,3-dimethyl-15-[2-(morpholin-4-yl)ethyl]-7-{3-[(naphthalen-1-yl)oxy]propyl}-2,10,11,12,13,15-hexahydropyrazolo[4′,3′:9,10][1,6]oxazacycloundecino[8,7,6-hi]indole-8-carboxylic Acid (Enantiomer 2)], the IC50 in data set [1] was > 20000 nM; in data set [4] (setting [7]), 2500 nM. For the same compound, the EC50 in data set [3] (setting [8]) came to 2300 nM.
Turning to `Cc1c2c(nn1C)C(C)OCCCCn1c(C(=O)O)c(CCCOc3cccc4ccccc34)c3cccc-2c31` (single isomer, unassigned; stereoisomer 1) [Example 2, 2,3,15-trimethyl-7-[3-(naphthalen-1-yloxy)propyl]-2,10,11,12,13,15-hexahydropyrazolo[4′,3′:9,10][1,6]oxazacycloundecino[8,7,6-hi]indole-8-carboxylic Acid Trifluoroacetic Acid Salt (Stereoisomer 1)], the IC50 was > 20000 nM in data set [1] and 1300 nM in data set [4] (setting [9]). The EC50 in data set [3] (setting [6]) stood at 1200 nM.
The matching figures for `Cc1c2c(nn1C)C(C)OCCCCn1c(C(=O)O)c(CCCOc3cccc4ccccc34)c3cccc-2c31` (single isomer, unassigned; stereoisomer 2) [Example 3, 2,3,15-trimethyl-7-[3-(naphthalen-1-yloxy)propyl]-2,10,11,12,13,15-hexahydropyrazolo[4′,3′:9,10][1,6]oxazacycloundecino[8,7,6-hi]indole-8-carboxylic Acid Trifluoroacetic Acid Salt (Stereoisomer 2)]: > 20000 nM, > 33000 nM and > 33000 nM.
On to `Cc1c2c(nn1C)C(CCN1CCOCC1)OCCCCn1c(C(=O)O)c(CCCOc3cccc4ccccc34)c3cccc-2c31` (single isomer, unassigned; stereoisomer 2) [Example 6, 2,3-dimethyl-15-[2-(morpholin-4-yl)ethyl]-7-[3-(naphthalen-1-yloxy)propyl]-2,10,11,12,13,15-hexahydropyrazolo[4′,3′:9,10][1,6]oxazacycloundecino[8,7,6-hi]indole-8-carboxylic Acid (Stereoisomer 2)], for which the IC50 was > 20000 nM in data set [1] and 22000 nM in data set [4] (setting [7]). The EC50 in data set [3] (setting [8]) came out at 22000 nM.

These data come from US11440923B2, “Substituted macrocyclic indole derivatives” (Bayer Aktiengesellschaft, priority 2017, dated 2022).
